Patent US12419889B2, “Methods of treating chronic spontaneous urticaria using a bruton's tyrosine kinase inhibitor” (NOVARTIS AG, priority 2019, dated 2025)

Legend:
[1] = system: mast cell FcγRIII-mediated inflammation; assay: Reverse passive Arthus (RPA) model, skin swelling; type: in vivo; conditions: mouse RPA
Experimental: The duration of the PD effect in skin after single dose was assessed in the reverse passive Arthus (RPA) model of mast cell FcγRIII—mediated inflammation. In this RPA model, a polyclonal IgG antibody is injected locally into the dermis, while the soluble antigen is given systemically by i.v. injection. In this mouse model, mast cell FcγRIII has a dominant role with only minor contributions by the complement system (Hazenbos et al. 1998, journal of immunology, 161(6), pp. 3026; Hazenbos et al., Immunity, 1996, 5(2), pp. 181; Köhl & Gessner 1999, Molecular immunology, 36(13-14), pp. 893; Sylvestre & Ravetch 1996, Immunity, 5(4), pp. 387; Sylvestre & Ravetch 1994, Science, 265(5175), pp. 1095). It has been shown that genetic BTK deficient mice are protected in the passive Arthus skin reaction (Fiedler et al. 2011, blood, 117(4), pp. 1329).
(§1) Oral treatment with compound (I) at a single dose of 3, 10, 30 and 100 mg/kg, given 2 hours prior to induction of the RPA response, reduced skin swelling in a dose-related manner. […] (FIG. 2)
In this model, the inhibition of skin swelling was maximal when compound (I) was dosed 2 hours prior to eliciting the Arthus reaction. The effect diminished gradually and reached baseline when the Arthus reaction was triggered 45 hours or later after compound (I) dosing.

[2] = molecular target: T1, BTK (Mus musculus, UniProt P35991); assay: BTK occupancy in spleen in mouse RPA and PCA models; type: in vivo; conditions: mouse RPA, 5 h after dosing
T1 construct: from tissue; host or cells: mouse spleen
T1 sequence (P35991 whole entry): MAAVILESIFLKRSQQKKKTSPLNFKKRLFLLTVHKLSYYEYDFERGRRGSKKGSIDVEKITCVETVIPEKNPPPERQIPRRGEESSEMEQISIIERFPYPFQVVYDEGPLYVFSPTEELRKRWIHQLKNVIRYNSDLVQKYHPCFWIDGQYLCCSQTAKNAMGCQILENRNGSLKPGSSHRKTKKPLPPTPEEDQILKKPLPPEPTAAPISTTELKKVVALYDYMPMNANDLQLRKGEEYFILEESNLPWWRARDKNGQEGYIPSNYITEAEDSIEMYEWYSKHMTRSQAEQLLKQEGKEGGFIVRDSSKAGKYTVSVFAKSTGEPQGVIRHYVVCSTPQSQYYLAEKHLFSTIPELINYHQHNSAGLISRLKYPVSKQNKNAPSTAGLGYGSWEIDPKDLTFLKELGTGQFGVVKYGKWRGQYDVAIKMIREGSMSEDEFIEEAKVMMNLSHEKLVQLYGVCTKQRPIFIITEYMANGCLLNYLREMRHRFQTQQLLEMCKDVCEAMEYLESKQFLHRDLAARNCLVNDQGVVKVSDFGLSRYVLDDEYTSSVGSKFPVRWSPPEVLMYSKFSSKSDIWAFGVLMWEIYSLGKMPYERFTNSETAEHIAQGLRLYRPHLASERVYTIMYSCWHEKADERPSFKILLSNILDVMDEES
Experimental: The in vivo PD effects of an irreversible BTK inhibitor like compound (I) are determined by the extent and duration of covalent BTK occupancy by the inhibitor. BTK occupancy after treatment with Compound of Formula (I) (also referenced to as Compound (I)) was measured in an ex vivo immunoassay. The fraction of unoccupied BTK protein was assayed after in vitro incubation with a covalent biotinylated BTK probe, since compound (I) and the probe bind to BTK in a mutually exclusive manner. Unoccupied BTK, as well as total BTK relative protein levels were determined in lysates of selected tissues and levels of unoccupied BTK were normalized to total BTK protein levels in the same samples.
as §1
(§2) The effects of compound (I) on acute skin hypersensitivity were also assessed after two oral doses of compound (I) in the mouse of model of passive cutaneous anaphylaxis (PCA) (Ovary 1958). The mouse PCA model was used at a low dose of sensitizing IgE antibody to minimize complement-dependent anaphylatoxins (Schafer et al. 2013, The journal of allergy and clinical immunology, 131(2), pp. 541; Hata et al. 1998, Journal of Experimental Medicine, 187(8), pp. 1235). […] (FIG. 3). Spleen occupancy at 2.5 hours post last dose ranged from 89.1 to 99.7% (representing peak occupancy) (FIG. 4).

[3] = system: passive cutaneous anaphylaxis (PCA); assay: Passive cutaneous anaphylaxis (PCA) model, Evans blue extravasation; type: in vivo; conditions: mouse PCA
Experimental: as §2

[4] = First-in-human study Part 3, food effect PK; type: in vivo
Source text: Part 3 was an open-label, randomized, two-way cross-over, single dose study to assess food effects. In Part 3, each subject participated in a 28 day screening period (Day −29 to −2), 2 baseline (Day −1) and 2 treatment periods, each consisting of a single dose administration on Day 1 followed by safety and PK assessment up to Day 5. Treatment period 2 consisted of a follow-up visit and an end of study evaluation on Day 22 and 40, respectively. The two treatment periods were separated by a wash-out period of at least 18 days (+1-1 day).
Subjects were randomized to one of the 2 treatment sequences (Table 9) in the ratio of 1:1. Definition of treatment sequences for Part 3
Pharmacokinetic samples were obtained in blood and evaluated in all subjects at all dose levels. The samples from placebo subjects were not analyzed. The samples for PK assessments from subjects were collected at time points defined in the study. Compound (I) concentrations were determined in blood by a validated LC-MS/MS method.

[5] = molecular target: T2, BTK (Homo sapiens, UniProt Q06187); assay: BTK occupancy in human whole blood (free and total BTK, ELISA on MSD platform); type: in vivo
T2 construct: from tissue; host or cells: human whole (peripheral) blood of healthy volunteers and atopic subjects
T2 sequence (Q06187 whole entry): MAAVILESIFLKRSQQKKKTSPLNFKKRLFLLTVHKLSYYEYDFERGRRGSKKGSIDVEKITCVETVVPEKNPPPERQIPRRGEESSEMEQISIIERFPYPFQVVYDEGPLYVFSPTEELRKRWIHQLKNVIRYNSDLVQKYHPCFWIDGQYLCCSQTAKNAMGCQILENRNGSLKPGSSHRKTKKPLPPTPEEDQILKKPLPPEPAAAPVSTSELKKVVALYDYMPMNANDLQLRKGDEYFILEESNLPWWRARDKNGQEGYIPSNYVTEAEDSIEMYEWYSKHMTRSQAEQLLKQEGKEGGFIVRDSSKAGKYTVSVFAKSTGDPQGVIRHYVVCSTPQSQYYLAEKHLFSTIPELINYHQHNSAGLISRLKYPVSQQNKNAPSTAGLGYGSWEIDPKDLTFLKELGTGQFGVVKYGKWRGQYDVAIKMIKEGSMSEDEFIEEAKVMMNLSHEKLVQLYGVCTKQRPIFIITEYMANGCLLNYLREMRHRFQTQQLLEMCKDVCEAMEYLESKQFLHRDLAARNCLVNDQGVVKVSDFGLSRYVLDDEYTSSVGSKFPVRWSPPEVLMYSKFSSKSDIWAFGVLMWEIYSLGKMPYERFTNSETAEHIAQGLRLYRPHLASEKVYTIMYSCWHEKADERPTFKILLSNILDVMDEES
Experimental: Pharmacodynamics (PD) was characterized by assessing target occupancy and distal pathway inhibition. Measurements of BTK occupancy in human whole blood (derived as ratio of free and total BTK), served as direct marker of therapeutic target engagement.
Compound of formula (I) is an irreversible inhibitor of BTK, the extent and duration of BTK occupancy were determined.
The relationship between dose and pharmacodynamics was characterized by measurements of BTK occupancy in human blood (derived as ratio of free and total BTK), a direct marker of therapeutic target engagement. BTK occupancy was determined for single ascending doses ranging 0.5 to 400 mg, for q.d. multiple ascending doses ranging from of 10 mg and 400 mg, and for b.i.d. multiple ascending doses of 100 mg and 200 mg.

[6] = system: allergen response (wheal size); assay: Skin prick test (SPT) in healthy atopic subjects; type: in vivo, human; conditions: 10 mg q.d.
Experimental: The ability of compound (I) to inhibit a defined allergen response has been evaluated by means of the skin prick test (SPT) in healthy atopic subjects in the MAD study part of the first in human study. SPT was performed prior to dosing (at screening, baseline and pre-dose on Day 1) and at different time points after the first dose (Day 1) and after 11 days of once daily dosing (Day 12).

C=CC(=O)N(C)CCOc1c(N)ncnc1-c1cc(F)cc(NC(=O)c2ccc(C3CC3)cc2F)c1C [Compound (I), N-(3-(6-Amino-5-(2-(N-methylacrylamido)ethoxy)pyrimidin-4-yl)-5-fluoro-2-methylphenyl)-4-cyclopropyl-2-fluorobenzamide]
time between dosing and Arthus trigger at which the effect reached baseline ([1]; single dose): ≥ 45 h
inhibition of skin swelling ([1]; single oral dose 3 mg/kg 2 hours prior to induction): 22.9 % inhibition
inhibition of skin swelling ([1]; single oral dose 10 mg/kg 2 hours prior to induction): 29.2 % inhibition
inhibition of skin swelling ([1]; single oral dose 30 mg/kg 2 hours prior to induction): 73.0 % inhibition
inhibition of skin swelling ([1]; single oral dose 100 mg/kg 2 hours prior to induction): 61.2 % inhibition
receptor occupancy at 3 mg/kg ([2]; 3 mg/kg): 68.1%
receptor occupancy at 10 mg/kg ([2]; 10 mg/kg): 82.1%
receptor occupancy at 30 mg/kg ([2]; 30 mg/kg): 91.3%
receptor occupancy at 100 mg/kg ([2]; 100 mg/kg): 99.3%
inhibition of skin edema (Evans blue extravasation) ([3]; two oral doses of 3 mg/kg 14 and 2 hours before challenge): 60.7%
inhibition of skin edema (Evans blue extravasation) ([3]; two oral doses of 10 mg/kg 14 and 2 hours before challenge): 66.9%
inhibition of skin edema (Evans blue extravasation) ([3]; two oral doses of 30 mg/kg 14 and 2 hours before challenge): 69.2%
inhibition of skin edema (Evans blue extravasation) ([3]; two oral doses of 100 mg/kg 14 and 2 hours before challenge): 87.4%
Tmax ([4]; human, whole blood, single oral dose 60 mg, fasted): 1 h
AUC0-24, GeoMean ([4]; single dose 60 mg, FAST): 182.08 ng·h/mL
AUClast, GeoMean ([4]; single dose 60 mg, FAST): 177.17 ng·h/mL
Tlast, GeoMean ([4]; single dose 60 mg, FAST): 9.66 h
Tlast, Mean ([4]; single dose 60 mg, FAST): 10.50 h
Tmax, Mean ([4]; single dose 60 mg, FAST): 1.02 h
Tlast, GeoMean ([4]; single dose 60 mg, FED): 9.25 h
Tlast, Mean ([4]; single dose 60 mg, FED): 9.50 h
higher AUC0-24 fed vs fasted ([4]; single oral dose 60 mg): 1.4 fold
lower Cmax fed vs fasted ([4]; single oral dose 60 mg): 1.25 fold
BTK occupancy in blood ([5]; 10 mg q.d.): nearly complete
duration of BTK occupancy in blood ([5]; blood): > 24 h
median BTK turnover T1/2 ([5]; blood, after single dose): about 48 hours
time to refresh BTK protein pool to pre-dose levels ([5]; blood, after single dose): about 10 days
duration of sustained BTK occupancy ([5]; blood, single doses of 30 mg and higher): > 24 h
time of peak target (BTK) occupancy post dose ([5]; peripheral blood): 0.5 h
inhibition of wheal size in SPT [6]: minimal inhibition
